EC50 data for eight compounds are collected here from patent publication US11773094B2, “Farnesoid X receptor agonists and uses thereof” (Metacrine, Inc., priority 2018, dated 2023).

The experiment addresses T1, hFXR (Homo sapiens, UniProt Q96RI1).
T1 construct: expressed in transfected cells; host or cells: CV-1 cells
T1 sequence (Q96RI1 1-486): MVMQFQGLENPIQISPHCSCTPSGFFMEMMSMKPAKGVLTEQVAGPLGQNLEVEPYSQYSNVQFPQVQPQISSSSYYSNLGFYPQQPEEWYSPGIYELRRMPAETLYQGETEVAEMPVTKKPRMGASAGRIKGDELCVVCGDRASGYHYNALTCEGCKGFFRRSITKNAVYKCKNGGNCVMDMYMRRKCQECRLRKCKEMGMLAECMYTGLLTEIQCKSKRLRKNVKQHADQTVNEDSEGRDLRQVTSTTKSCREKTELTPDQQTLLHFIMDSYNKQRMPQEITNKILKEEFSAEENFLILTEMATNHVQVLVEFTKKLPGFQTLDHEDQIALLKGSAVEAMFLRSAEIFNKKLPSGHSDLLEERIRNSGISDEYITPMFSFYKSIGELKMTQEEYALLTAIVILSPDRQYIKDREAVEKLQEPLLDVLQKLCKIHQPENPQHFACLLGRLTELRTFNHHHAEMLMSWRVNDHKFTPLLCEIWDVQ
T1 sequence (P19793 1-462 partner): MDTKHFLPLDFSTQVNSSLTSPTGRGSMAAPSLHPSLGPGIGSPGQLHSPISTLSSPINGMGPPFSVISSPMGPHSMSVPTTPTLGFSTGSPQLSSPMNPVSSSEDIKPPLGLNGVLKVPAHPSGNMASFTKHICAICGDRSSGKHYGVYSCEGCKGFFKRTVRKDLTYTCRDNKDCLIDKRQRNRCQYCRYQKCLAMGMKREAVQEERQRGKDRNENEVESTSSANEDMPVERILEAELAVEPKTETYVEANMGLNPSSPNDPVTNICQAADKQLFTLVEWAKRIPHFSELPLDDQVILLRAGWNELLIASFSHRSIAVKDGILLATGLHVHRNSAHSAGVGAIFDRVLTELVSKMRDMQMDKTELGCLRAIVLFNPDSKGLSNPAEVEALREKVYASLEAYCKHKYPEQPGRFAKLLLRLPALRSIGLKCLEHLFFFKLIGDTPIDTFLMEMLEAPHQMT
The experiment in a line: In Vitro FXR Assay (TK): TK-ECRE-luc reporter in transfected CV-1 cells. Format: cell-based. The note with it: CV-1 cells transfected with hFXR, hRXR, pCMX-YFP, 18 hrs incubation, luminescence. Put shortly:
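First, CV-1 cells were grown overnight in stripped-serum DMEM, then transfected for 18 h with expression plasmids for human FXR and RXR plus a TK-ECRE luciferase reporter and YFP. Next, serially diluted compounds were applied for 18 h, and lysates were read by luminescence.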

By EC50 is commonly meant the concentration at which the effect is half-maximal. Read a low EC50 as greater potency. `COc1ccc(C23CCC(CN(c4cc(-c5coc(C(C)(C)C)n5)ccn4)C(=O)[C@H]4CC[C@H](OC(=O)NCCO)CC4)(CC2)CC3)cc1C` [Compound 2.19, 4-((4-(2-(tert-Butyl)oxazol-4-yl)pyridin-2-yl)((4-(4-methoxy-3-methylphenyl)bicyclo[2.2.2]octan-1-yl)methyl)carbamoyl)cyclohexyl (2-hydroxyethyl)trans-carbamate] registered an EC50 of at most 10 nM.
To `COc1ccc(C23CCC(CN(c4nccc(-c5cnn(C(C)(C)C)c5)n4)C(=O)[C@H]4CC[C@H](OC(=O)N5CC(O)C5)CC4)(CC2)CC3)cc1C` [Compound 3.14, 4-((4-(1-(tert-Butyl)-1H-pyrazol-4-yl)pyrimidin-2-yl)((4-(4-methoxy-3-methylphenyl)bicyclo[2.2.2]octan-1-yl)methyl)carbamoyl) (trans-cyclohexyl) 3-hydroxyazetidine-1-carboxylate] belongs 10 to 1000 nM; to `COc1ccc([C@H]2CC[C@H](CN(c3cc(-c4cnn(C(C)(C)C)c4)ccn3)C(=O)[C@H]3CC[C@H](OC(=O)N4CC(O)C4)CC3)CC2)cc1C` [Compound 1.08, trans-4-((4-(1-(tert-Butyl)-1H-pyrazol-4-yl)pyridin-2-yl)((trans-4-(4-methoxy-3-methylphenyl)cyclohexyl)methyl)carbamoyl) cyclohexyl 3-hydroxyazetidine-1-carboxylate], 10 to 1000 nM; to `COc1ccc(C23CCC(CN(c4cc(-c5ccn(C(C)(C)C)n5)ccn4)C(=O)[C@H]4CC[C@H](OC(=O)N5CC(O)C5)CC4)(CC2)CC3)cc1C` [Compound 4.10, 4-((4-(1-(tert-Butyl)-1H-pyrazol-3-yl)pyridin-2-yl)((4-(4-methoxy-3-methylphenyl)bicyclo[2.2.2]octan-1-yl)methyl)carbamoyl) cyclohexyl trans-3-hydroxyazetidine-1-carboxylate], 10 to 1000 nM.
On to `CCC(C)(CC)n1cc(-c2ccnc(N(CC34CCC(c5ccc(OC)c(C)c5)(CC3)CC4)C(=O)[C@H]3CC[C@H](OC(=O)N4CC(O)C4)CC3)c2)cn1` [Compound 4.04, 4-(((4-(4-Methoxy-3-methylphenyl)bicyclo[2.2.2]octan-1-yl)methyl)(4-(1-(3-methylpentan-3-yl)-1H-pyrazol-4-yl)pyridin-2-yl)carbamoyl)cyclohexyl trans-3-hydroxyazetidine-1-carboxylate], for which the EC50 was at most 10 nM.
`COc1ccc(C23CCC(CN(c4cc(-c5cnc(C(C)(C)C)s5)ccn4)C(=O)[C@H]4CC[C@H](OC(=O)N5CC(C)(O)C5)CC4)(CC2)CC3)cc1C` [Compound 2.01, 4-((4-(2-(tert-Butyl)thiazol-5-yl)pyridin-2-yl)((4-(4-methoxy-3-methylphenyl)bicyclo[2.2.2]octan-1-yl)methyl)carbamoyl) (trans-cyclohexyl) 3-hydroxy-3-methylazetidine-1-carboxylate] showed an EC50 of at most 10 nM.
`COc1ccc([C@]23CC[C@@](CN(c4cc(-c5cnn(C(C)(C)C)c5)ccn4)C(=O)[C@H]4CC[C@H](OC(=O)N5CC(CO)C5)CC4)(CC2)CC3)cc1C` [Compound 3.02, 4-((4-(1-(tert-Butyl)-1H-pyrazol-4-yl)pyridin-2-yl)(trans(4-(4-methoxy-3-methylphenyl)bicyclo[2.2.2]octan-1-yl)methyl)carbamoyl) (trans-cyclohexyl) 3-(hydroxymethyl)azetidine-1-carboxylate] showed an EC50 of at most 10 nM.
`COc1ccc([C@H]2CC[C@H](CN(c3cc(-c4coc(C(C)(C)C)n4)ccn3)C(=O)[C@H]3CC[C@H](OC(=O)N4CC(O)C4(C)C)CC3)CC2)cc1C` (stereo partly drawn) [Compound 1.05, trans-4-((4-(2-(tert-Butyl)oxazol-4-yl)pyridin-2-yl)(((trans)-4-(4-methoxy-3-methylphenyl)cyclohexyl)methyl)carbamoyl) cyclohexyl 3-hydroxy-2,2-dimethylazetidine-1-carboxylate]: the EC50 is 10 to 1000 nM.
